Measurements: PubChem BioAssay AID248 (DTP/NCI, 2004)
Values joined by “and” are separate entries in the source; they are usually repeats but may differ in a detail not shown here. Equal entries are not always repeated. Inconclusive results and toxic doses are left out. No stated cut-off is given here; in the data, active means T/C of 150% or more; inactive means T/C below 125%.

Tested on: L1210 leukemia ip in BDF1 mice, survival T/C
Assay: NCI In Vivo Anticancer Drug Screen. Data for tumor model L1210 Leukemia (intraperitoneal) in B6D2F1 (BDF1) mice
Conditions: endpoint: mean survival time, higher = longer survival
Summary of the method: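 Value reflects the ratio of survival in compound-treated mice to survival in vehicle-treated controls, with both groups carrying the same transplanted tumor.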

[1] = dose: 100.0 mg/kg/injection, schedule: Q01DX001 (ip), vehicle: Klucel (hydroxypropylcellulose) (HPC)
[2] = dose: 100.0 mg/kg/injection, schedule: Q01DX009 (ip), vehicle: Klucel (hydroxypropylcellulose) (HPC)
[3] = dose: 200.0 mg/kg/injection, schedule: Q01DX001 (ip), vehicle: Klucel (hydroxypropylcellulose) (HPC)
[4] = dose: 200.0 mg/kg/injection, schedule: Q01DX009 (ip), vehicle: Klucel (hydroxypropylcellulose) (HPC)
[5] = dose: 400.0 mg/kg/injection, schedule: Q01DX001 (ip), vehicle: Klucel (hydroxypropylcellulose) (HPC)
[6] = dose: 100.0 mg/kg/injection, schedule: Q01DX001 (ip), vehicle: saline
[7] = dose: 200.0 mg/kg/injection, schedule: Q01DX001 (ip), vehicle: saline
[8] = dose: 400.0 mg/kg/injection, schedule: Q01DX001 (ip), vehicle: saline
[9] = dose: 100.0 mg/kg/injection, schedule: Q01DX009 (ip), vehicle: saline with Tween-80

Measured: T/C

Cc1ccc(S(=O)(=O)Nc2ccccc2N=Cc2ccc([N+](=O)[O-])cc2[N+](=O)[O-])cc1
inactive: dose: 75.0 mg/kg/injection, schedule: Q01DX001 (ip), vehicle: carboxymethylcellulose (CMC) 97 % of control | dose: 150.0 mg/kg/injection, schedule: Q01DX001 (ip), vehicle: carboxymethylcellulose (CMC) 104 % of control | dose: 300.0 mg/kg/injection, schedule: Q01DX001 (ip), vehicle: carboxymethylcellulose (CMC) 92 % of control

O=C1CCNc2cc(Cl)ccc21
inactive: [1] 96 % of control | [2] 98 % of control | [3] 95 % of control | [4] 95 % of control | [5] 104 % of control

Cc1cc(C)cc(OC(=O)Nc2ccccc2Cl)c1
inactive: [2] 88 % of control | dose: 100.0 mg/kg/injection, schedule: Q04DX003 (ip), vehicle: Klucel (hydroxypropylcellulose) (HPC) 98 % of control | [4] 92 % of control | dose: 200.0 mg/kg/injection, schedule: Q04DX003 (ip), vehicle: Klucel (hydroxypropylcellulose) (HPC) 98 % of control | dose: 400.0 mg/kg/injection, schedule: Q01DX009 (ip), vehicle: Klucel (hydroxypropylcellulose) (HPC) 86 % of control | dose: 400.0 mg/kg/injection, schedule: Q04DX003 (ip), vehicle: Klucel (hydroxypropylcellulose) (HPC) 98 % of control

O=C(Nc1cc(C2=NCCN2)cc(C2=NCCN2)c1)Nc1cc(C2=NCCN2)cc(C2=NCCN2)c1
inactive: dose: 0.75 mg/kg/injection, schedule: Q01DX Z (ip), vehicle: carboxymethylcellulose (CMC) 101 % of control | dose: 1.5 mg/kg/injection, schedule: Q01DX Z (ip), vehicle: carboxymethylcellulose (CMC) 98 % of control | dose: 3.0 mg/kg/injection, schedule: Q01DX Z (ip), vehicle: carboxymethylcellulose (CMC) 95 % of control | dose: 6.0 mg/kg/injection, schedule: Q01DX Z (ip), vehicle: carboxymethylcellulose (CMC) 101 % of control

CC(=O)OCC1OC(n2c(=S)[nH]c3c(N)ncnc32)C(OC(C)=O)C1OC(C)=O (stereo not given)
inactive: dose: 50.0 mg/kg/injection, schedule: Q01DX001 (ip), vehicle: saline 98 % of control | [6] 98 % of control | [7] 95 % of control | [8] 98 % of control

COc1cc(N2C(N)=NC(N)=NC2(C)C)cc(OC)c1OC
inactive: dose: 6.25 mg/kg/injection, schedule: Q01DX009 (ip), vehicle: saline 98 % of control | dose: 12.5 mg/kg/injection, schedule: Q01DX009 (ip), vehicle: saline 105 % of control | dose: 25.0 mg/kg/injection, schedule: Q01DX009 (ip), vehicle: saline 107 % of control

CC(C#N)CN1CC1 (stereo not given)
inactive: dose: 20.0 mg/kg/injection, schedule: Q01DX001 (ip), vehicle: Klucel (hydroxypropylcellulose) (HPC) 101 % of control

NNc1nc(Cl)nc(C(Cl)(Cl)Cl)c1Cl (tested in a mixture with another compound)
inactive: dose: 50.0 mg/kg/injection, schedule: Q01DX009 (ip), vehicle: Klucel (hydroxypropylcellulose) (HPC) 87 % of control | [2] 87 % of control | [4] 89 % of control

COC(=O)CC(Br)CBr (stereo not given)
inactive: dose: 100.0 mg/kg/injection, schedule: Q01DX001 (ip), vehicle: carboxymethylcellulose (CMC) 100 % of control | dose: 200.0 mg/kg/injection, schedule: Q01DX001 (ip), vehicle: carboxymethylcellulose (CMC) 100 % of control

O=[N+]([O-])c1ccccc1S(=O)(=O)C1CC1c1ccccc1 (stereo not given)
inactive: [6] 109 % of control | [7] 102 % of control | [8] 103 % of control

Nc1ncnc2c1ncn2C1OCC(O)C(O)C1O (stereo not given)
inactive: [6] 106 % of control | [7] 98 % of control | [8] 91 % of control

CCOC(=O)C(C#N)(CC/C(C)=N/Nc1ccc([N+](=O)[O-])cc1[N+](=O)[O-])C(C)COC(C)=O (stereo not given)
inactive: [1] 94 % of control | [3] 91 % of control | [5] 102 % of control

COC1OC2COC(c3ccccc3)OC2C(OC)C1OC (stereo not given)
inactive: dose: 12.5 mg/kg/injection, schedule: Q04DX002 (ip), vehicle: Klucel (hydroxypropylcellulose) (HPC) 100 % of control | dose: 25.0 mg/kg/injection, schedule: Q04DX002 (ip), vehicle: Klucel (hydroxypropylcellulose) (HPC) 91 % of control | dose: 50.0 mg/kg/injection, schedule: Q04DX002 (ip), vehicle: Klucel (hydroxypropylcellulose) (HPC) 103 % of control and 91 % of control | dose: 100.0 mg/kg/injection, schedule: Q04DX002 (ip), vehicle: Klucel (hydroxypropylcellulose) (HPC) 108 % of control | dose: 200.0 mg/kg/injection, schedule: Q04DX002 (ip), vehicle: Klucel (hydroxypropylcellulose) (HPC) 95 % of control

CCO/C=C/C(=O)NC(=S)Nc1ccccc1
inactive: dose: 100.0 mg/kg/injection, schedule: Q01DX001 (ip), vehicle: saline with Tween-80 97 % of control | [9] 86 % of control | dose: 200.0 mg/kg/injection, schedule: Q01DX001 (ip), vehicle: saline with Tween-80 100 % of control | dose: 200.0 mg/kg/injection, schedule: Q01DX009 (ip), vehicle: saline with Tween-80 86 % of control | dose: 400.0 mg/kg/injection, schedule: Q01DX001 (ip), vehicle: saline with Tween-80 102 % of control

CNP1(N(C)C)=NP(NC)(N(C)C)=NP(NC)(N(C)C)=N1 (stereo not given)
inactive: dose: 50.0 mg/kg/injection, schedule: Q01DX009 (ip), vehicle: saline 102 % of control | dose: 100.0 mg/kg/injection, schedule: Q01DX009 (ip), vehicle: saline 100 % of control | dose: 200.0 mg/kg/injection, schedule: Q01DX009 (ip), vehicle: saline 94 % of control

COC(=O)C12COC(=O)C1COC2=O (stereo not given)
inactive: dose: 100.0 mg/kg/injection, schedule: Q04DX003 (ip), vehicle: saline 100 % of control | dose: 200.0 mg/kg/injection, schedule: Q04DX003 (ip), vehicle: saline 98 % of control | dose: 400.0 mg/kg/injection, schedule: Q04DX003 (ip), vehicle: saline 109 % of control

Nc1cc2c3ccccc3ccc2c2ccccc12
inactive: dose: 67.0 mg/kg/injection, schedule: Q01DX009 (ip), vehicle: saline with Tween-80 105 % of control | [9] 105 % of control | dose: 150.0 mg/kg/injection, schedule: Q01DX009 (ip), vehicle: saline with Tween-80 96 % of control | dose: 225.0 mg/kg/injection, schedule: Q01DX009 (ip), vehicle: saline with Tween-80 97 % of control
